# Assays:
# [1] = molecular target: μ-opioid receptor (Homo sapiens (Human), UniProt P35372); experiment: μ-opioid receptor radioligand dose-displacement binding assay ([3H]-diprenorphine)
# Procedure: μ-Opioid Receptor Binding Assay Procedures: Radioligand dose-displacement binding assays for μ-opioid receptors used 0.3 nM [^3H]-diprenorphine (Perkin Elmer, Shelton, Conn.), with […] membrane protein/well in a final volume of 500 μl binding buffer (10 mM MgCl2, 1 mM EDTA, 5% DMSO, 50 mM HEPES, pH 7.4). Reactions were carried out in the absence or presence of increasing concentrations of unlabeled naloxone. All reactions were conducted in 96-deep well polypropylene plates for 2 hours at room temperature. Binding reactions were terminated by rapid filtration onto 96-well Unifilter GF/C filter plates (Perkin Elmer, Shelton, Conn.), presoaked in 0.5% polyethylenimine using a 96-well tissue harvester (Perkin Elmer, Shelton, Conn.) followed by performing three filtration washes with 500 μl of ice-cold binding buffer. Filter plates were subsequently dried at 50° C. for 2-3 hours. BetaScint scintillation cocktail (Perkin Elmer, Shelton, Conn.) was added (50 μl/well), and plates were counted using a Packard Top-Count for 1 min/well. The data were analyzed using the one-site competition curve fitting functions in GraphPad PRISM™ v. 3.0 or higher (San Diego, Calif.), or an in-house function for one-site competition curve-fitting.
# (§1) In TABLE 1, binding affinity of certain Compounds of the Invention to the μ-, δ- and κ-opioid receptors was determined as described above.
# [2] = molecular target: recombinant human kappa opioid receptor (κ) (Homo sapiens (Human), UniProt P41145); experiment: κ-opioid receptor radioligand dose-displacement binding assay ([3H]-U69,593)
# Procedure: κ-Opioid Receptor Binding Assay Procedures: Membranes from HEK-293 cells, CHO or U-2 OS cells expressing the recombinant human kappa opioid receptor (κ) (cloned in house) were prepared by lysing cells in ice cold hypotonic buffer (2.5 mM MgCl2, 50 mM HEPES, pH 7.4) (10 mL/10 cm dish) followed by homogenization with a tissue grinder/Teflon pestle. Membranes were collected by centrifugation at 30,000×g for 15 min at 4° C. and pellets were resuspended in hypotonic buffer to a final concentration of 1-3 mg/mL. Protein concentrations were determined using the BioRad protein assay reagent with bovine serum albumen as standard. Aliquots of κ receptor membranes were stored at −80° C.
# Radioligand dose displacement assays used 0.4 nM [^3H]-U69,593 (GE Healthcare, Piscataway, N.J.; 40 Ci/mmole) with 15 μg membrane protein (recombinant κ opioid receptor expressed in HEK 293 cells; in-house prep) in a final volume of 200 μl binding buffer (5% DMSO, 50 mM Trizma base, pH 7.4). Non-specific binding was determined in the presence of 10 μM unlabeled naloxone or U69,593. All reactions were performed in 96-well polypropylene plates for 1 hour at a temperature of about 25° C. Binding reactions were terminated by rapid filtration onto 96-well Unifilter GF/C filter plates (Perkin Elmer, Shelton, Conn.) presoaked in 0.5% polyethylenimine (Sigma). Harvesting was performed using a 96-well tissue harvester (Perkin Elmer, Shelton, Conn.) followed by five filtration washes with 200 μl ice-cold binding buffer. Filter plates were subsequently dried at 50° C. for 1-2 hours. Fifty μl/well scintillation cocktail (Perkin Elmer, Shelton, Conn.) was added and plates were counted in a Packard Top-Count for 1 min/well.
# as §1
# [3] = molecular target: T1, δ opioid receptor (Homo sapiens (Human), UniProt P41143); experiment: δ-opioid receptor radioligand dose-displacement binding assay ([3H]-Naltrindole)
# Procedure: δ-Oploid Receptor Binding Assay Procedures: δ-Opioid Receptor Binding Assay Procedures were conducted as follows. Radioligand dose-displacement assays used 0.3 nM [^3H]-Naltrindole (Perkin Elmer, Shelton, Conn.; 33.0 Ci/mmole) with 5 μg membrane protein (Perkin Elmer, Shelton, Conn.) in a final volume of 500 μl binding buffer (5 mM MgCl2, 5% DMSO, 50 mM Trizma base, pH 7.4). Non-specific binding was determined in the presence of 25 μM unlabeled naloxone. All reactions were performed in 96-deep well polypropylene plates for 1 hour at a temperature of about 25° C. Binding reactions were terminated by rapid filtration onto 96-well Unifilter GF/C filter plates (Perkin Elmer, Shelton, Conn.) presoaked in 0.5% polyethylenimine (Sigma). Harvesting was performed using a 96-well tissue harvester (Perkin Elmer, Shelton, Conn.) followed by five filtration washes with 500 μl ice-cold binding buffer. Filter plates were subsequently dried at 50° C. for 1-2 hours. Fifty μl/well scintillation cocktail (Perkin Elmer, Shelton, Conn.) was added and plates were counted in a Packard Top-Count for 1 min/well.
# as §1
# [4] = molecular target: T1, δ opioid receptor; experiment: δ-opioid receptor [35S]GTPγS functional assay, HEK-293 or CHO cells; type: biochemical; settings: for EC50: GTPγS; for Emax: relative to met-enkephalin
# Procedure: δ-Opioid Receptor Functional Assay Procedures: Functional [^35S]GTPγS binding assays were conducted as follows. 5 opioid receptor membrane solution was prepared by sequentially adding final concentrations of […] δ membrane protein (Perkin Elmer, Shelton, Conn.), 10 μg/mL saponin, 3 µM GDP and 0.20 nM [^35S]GTPγS to binding buffer (100 mM NaCl, 10 mM MgCl2, 20 mM HEPES, pH 7.4) on ice. The prepared membrane solution ([…]) was transferred to 96-shallow well polypropylene plates containing 10 μl of 20× concentrated stock solutions of agonist prepared in DMSO. Plates were incubated for 30 min at a temperature of about 25° C. with shaking. Reactions were terminated by rapid filtration onto 96-well Unifilter GF/B filter plates (Perkin Elmer, Shelton, Conn.) using a 96-well tissue harvester (Packard) and followed by three filtration washes with 200 μl ice-cold binding buffer (10 mM NaH2PO4, 10 mM Na2HPO4, pH 7.4). Filter plates were subsequently dried at 50° C. for 1-2 hours. Fifty μl/well scintillation cocktail (Perkin Elmer, Shelton, Conn.) was added and plates were counted in a Packard Top-count for 1 min/well.
# δ-Oploid Receptor Functional Data: δ GTP EC50 is the concentration of a compound providing 50% of the maximal response for the compound at a δ receptor.
# δ GTP Emax (%) is the maximal effect elicited by a compound relative to the effect elicited by met-enkephalin.
# In TABLE 2, activity response of certain Compounds of the Invention to the μ-, δ- and κ-opioid receptors was determined as described above for functional assays using HEK-293 or CHO cells.
# T1 sequence (P41143 whole entry, looked up): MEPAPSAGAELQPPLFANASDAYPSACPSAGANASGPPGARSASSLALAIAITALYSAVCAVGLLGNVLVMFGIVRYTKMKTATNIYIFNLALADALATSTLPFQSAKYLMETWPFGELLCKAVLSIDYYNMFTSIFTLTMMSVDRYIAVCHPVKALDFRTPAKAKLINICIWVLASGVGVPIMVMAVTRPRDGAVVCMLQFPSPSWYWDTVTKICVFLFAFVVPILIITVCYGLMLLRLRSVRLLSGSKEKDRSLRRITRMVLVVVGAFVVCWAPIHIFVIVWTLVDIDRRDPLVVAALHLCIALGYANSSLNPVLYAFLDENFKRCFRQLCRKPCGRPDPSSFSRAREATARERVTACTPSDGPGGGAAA
SMILES,Ki [1] [nM],Ki [2] [nM],Ki [3] [nM],EC50 [4] [nM],Emax [4] [%]
"O=C1C[C@]23CCN(CC4CC4)[C@H](Cc4ccc(O)cc42)[C@@H]3CN1 [Compound 7, (4aS,5R,10bS)-13-(cyclopropylmethyl)-9-hydroxy-4,4-a,5,6-tetrahydro-1H-5,10b-(epiminoethano)benzo[f]isoquinolin-2(3H)-one]",5.61 ± 0.44,0.18 ± 0.02,15 ± 3.45,8.7 ± 1.25,85.7 ± 6.89
"Oc1ccc2c(c1)[C@@]13CCNC[C@H]1[C@@H](C2)N(CC1CC1)CC3 [Compound 13, (4aS,5R,10bR)-13-(cyclopropylmethyl)-2,3,4,4a,5,6-hexahydro-1H-5,10b-(epiminoethano)benzo[f]isoquinolin-9-ol]",50.4 ± 16.7,0.21 ± 0.04,174 ± 33.7,36.5 ± 11.1,83.3 ± 1.45
"NC(=O)CN1C[C@H]2[C@H]3Cc4ccc(O)cc4[C@@]2(CCN3CC2CC2)CC1=O [Compound 4, 2-((4aS,5R,10bS)— 13-(cyclopropylmethyl)-9-hydroxy-2-oxo-4,4-a,5,6-tetrahydro-1H-5,10b-(epiminoethano)benzo[f]isoquinolin-3(2H)-yl)acetamide]",24.4 ± 7.61,0.55 ± 0.08,49 ± 17.7,9.06 ± 0.94,109 ± 3.28
"O=C(O)CN1C[C@H]2[C@H]3Cc4ccc(O)cc4[C@@]2(CCN3CC2CC2)CC1=O [Compound 8, 2-((4aS,5R,10bS)-13-(cyclopropylmethyl)-9-hydroxy-2-oxo-4,4-a,5,6-tetrahydro-1H-5,10b-(epiminoethano)benzo[f]isoquinolin-3(2H)-yl)acetic acid]",21.2 ± 6.62,4.03 ± 0.07,82.2 ± 30.1,2.41 ± 0.29,110 ± 3.11
"O=C1C[C@]23CCN(CC4CC4)[C@H](Cc4ccc(O)cc42)[C@@H]3CN1Cc1ccc(O)cc1 [Compound 5, (4aS,5R,10bS)-13-(cyclopropylmethyl)-9-hydroxy-3-(4-hydroxybenzyl)-4,4-a,5,6-tetrahydro-1H-5,10b-(epiminoethano)benzo[f]isoquinolin-2(3H)-one]",12.8 ± 1.55,6.27 ± 1.45,22.9 ± 8.53,4.39 ± 0.93,71 ± 6.08

# — patent publication US8937084B2, “Nitrogen containing morphinan derivatives and the use thereof” (Purdue Pharma L.P., priority 2012, dated 2015)
